Measurements taken from US8415469B2, “Compounds and methods for kinase modulation, and indications therefor” (Plexxikon Inc., priority 2005, dated 2013).

Legend:
Type in all cases: biochemical
Flt1 = biological target: T1, Flt1 (Homo sapiens, UniProt P17948); assay: AlphaScreen kinase assay, Flt1; settings: read-out: IC50, activity toward kinase Flt1
T1 construct: P1826.pETN6 BI-PTP FLT1 M799-D1165-X WT; His6 (N); made in house; host or cells: E. coli (PTP1B co-expressed)
T1 sequence (P17948 with tags, fused parts or gaps): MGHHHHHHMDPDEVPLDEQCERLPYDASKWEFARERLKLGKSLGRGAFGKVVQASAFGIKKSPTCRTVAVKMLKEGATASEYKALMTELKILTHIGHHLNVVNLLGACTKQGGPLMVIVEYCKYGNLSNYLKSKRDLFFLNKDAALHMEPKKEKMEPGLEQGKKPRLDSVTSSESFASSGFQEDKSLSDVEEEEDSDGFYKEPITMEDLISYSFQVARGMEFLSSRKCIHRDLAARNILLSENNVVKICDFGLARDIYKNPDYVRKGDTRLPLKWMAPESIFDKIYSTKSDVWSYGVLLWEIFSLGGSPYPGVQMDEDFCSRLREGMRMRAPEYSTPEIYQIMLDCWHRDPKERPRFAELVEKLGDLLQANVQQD

Src = biological target: T2, Src (Homo sapiens, UniProt P12931); assay: AlphaScreen kinase assay, Src; settings: read-out: IC50, activity toward kinase Src
T2 construct: P1144. pET-N6 BI-PTP SRC V86-L536-X; made in house

Ret = biological target: T3, Ret (Homo sapiens, UniProt P07949); assay: AlphaScreen kinase assay, Ret; settings: read-out: IC50, activity toward kinase Ret
T3 construct: P1378.pET-SF BI-PTP RET H661-R1012 HIS; made in house
T3 sequence (P07949 with tags, fused parts or gaps): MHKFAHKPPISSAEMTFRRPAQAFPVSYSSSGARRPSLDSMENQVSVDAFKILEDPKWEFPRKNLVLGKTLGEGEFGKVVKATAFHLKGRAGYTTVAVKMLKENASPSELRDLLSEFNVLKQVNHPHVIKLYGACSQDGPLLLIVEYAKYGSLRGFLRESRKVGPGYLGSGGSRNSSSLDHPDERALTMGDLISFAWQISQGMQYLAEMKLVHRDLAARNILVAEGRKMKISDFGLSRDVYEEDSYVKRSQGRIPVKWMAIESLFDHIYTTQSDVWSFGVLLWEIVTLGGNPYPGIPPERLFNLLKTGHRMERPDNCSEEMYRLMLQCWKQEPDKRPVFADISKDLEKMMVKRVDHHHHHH

B-Raf V600E = biological target: T4, B-Raf V600E (Homo sapiens, UniProt P15056, V600E); assay: AlphaScreen kinase assay, B-Raf V600E; settings: read-out: IC50, activity toward kinase B-Raf V600E
T4 construct: P4254. pFastBacBD-CDC37 BRAF D437-K722-X, V600E; His6 with pFastBac HT leader (TEV site) (N); made in house; host or cells: Sf9 (baculovirus; chaperone CDC37 co-expressed)

Btk = biological target: T5, Btk (Homo sapiens, UniProt Q06187); assay: Z'-Lyte FRET kinase assay (Invitrogen), Btk; settings: read-out: IC50, activity toward kinase Btk
T5 construct: purchased Invitrogen (assay run by Invitrogen)

Jnk1 = biological target: T6, Jnk1 (Homo sapiens, UniProt P45983); assay: AlphaScreen kinase assay, Jnk1; settings: read-out: IC50, activity toward kinase Jnk1
T6 construct: purchased Upstate Biotechnology

Kit = biological target: T7, Kit (Homo sapiens, UniProt P10721); assay: AlphaScreen kinase assay, Kit; settings: read-out: IC50, activity toward kinase Kit
T7 construct: P1332.N6 BI PTP KIT M552-K948-X COD; His6 (N); made in house; host or cells: E. coli (PTP1B co-expressed)

c-Raf-1 = biological target: T8, c-Raf-1 (Homo sapiens, UniProt P04049); assay: AlphaScreen kinase assay, c-Raf-1; settings: read-out: IC50, activity toward kinase c-Raf-1
T8 construct: purchased Upstate Biotechnology

FGFR1 = biological target: T9, FGFR1 (Homo sapiens, UniProt P11362, C488A/C584S); assay: AlphaScreen kinase assay, FGFR1; settings: read-out: IC50, activity toward kinase FGFR
T9 construct: P1351.pET N6 BI-PTP FGFR A458-E765-X C488A, C584S; made in house; host or cells: E. coli (PTP1B co-expressed)

B-Raf = biological target: T10, B-Raf (Homo sapiens, UniProt P15056); assay: AlphaScreen kinase assay, B-Raf; settings: read-out: IC50, activity toward kinase B-Raf
T10 construct: purchased Upstate Biotechnology

Fak = biological target: T11, Fak (Homo sapiens, UniProt Q05397); assay: AlphaScreen kinase assay, Fak; settings: read-out: IC50, activity toward kinase Fak
T11 construct: P1358.pFastBacHtb FAK S411-Q686-X; His6 with pFastBacHTb leader (TEV site) (N); made in house; host or cells: Sf9 (baculovirus)

Fms = biological target: T12, Fms (Homo sapiens, UniProt P07333); assay: AlphaScreen kinase assay, Fms; settings: read-out: IC50, activity toward kinase Fms
T12 construct: purchased Upstate Biotechnology

Jnk3 = biological target: T13, Jnk3 (Homo sapiens, UniProt P53779); assay: AlphaScreen kinase assay, Jnk3; settings: read-out: IC50, activity toward kinase Jnk3
T13 construct: purchased Upstate Biotechnology

Jnk2 = biological target: T14, Jnk2 (Homo sapiens, UniProt P45984); assay: AlphaScreen kinase assay, Jnk2; settings: read-out: IC50, activity toward kinase Jnk2
T14 construct: purchased Roche Protein Expression Group (Indianapolis, IN)
Text: AlphaScreen assay was used to screen additional kinases. The assay is similarly dependent on the phosphorylation of a peptide substrate. In this assay, an antibody that recognizes phosphorylated substrate is bound to an acceptor bead. The peptide substrate is attached to biotin, which binds to a donor head that contains streptavidin. Thus phosphorylated substrate is bound by antibody and streptavidin, bringing the donor and acceptor heads into close proximity when kinase is not inhibited. The donor produces singlet oxygen which results in emission from the acceptor when they are in close proximity. Conversely, when kinase is inhibited, the donor and acceptor beads are not associated and the emission from the acceptor is reduced.
AlphaScreen assays were done using compounds dissolved in DMSO to a concentration of 20 mM. The compounds were diluted accordingly to the desired final concentrations in each sample well, using 1:3 serial dilution for a total of 8 concentration points.

Measured: IC50

T9 sequence (P11362 458-765 C488A/C584S): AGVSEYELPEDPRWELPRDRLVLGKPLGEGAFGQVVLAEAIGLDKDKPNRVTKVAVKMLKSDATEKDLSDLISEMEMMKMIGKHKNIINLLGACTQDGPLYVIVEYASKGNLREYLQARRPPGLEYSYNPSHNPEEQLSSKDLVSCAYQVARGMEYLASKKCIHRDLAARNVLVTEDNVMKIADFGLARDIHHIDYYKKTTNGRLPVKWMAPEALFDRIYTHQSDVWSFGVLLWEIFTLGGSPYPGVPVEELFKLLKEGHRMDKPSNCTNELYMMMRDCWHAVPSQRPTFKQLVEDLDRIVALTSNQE
T11 sequence (Q05397 411-686): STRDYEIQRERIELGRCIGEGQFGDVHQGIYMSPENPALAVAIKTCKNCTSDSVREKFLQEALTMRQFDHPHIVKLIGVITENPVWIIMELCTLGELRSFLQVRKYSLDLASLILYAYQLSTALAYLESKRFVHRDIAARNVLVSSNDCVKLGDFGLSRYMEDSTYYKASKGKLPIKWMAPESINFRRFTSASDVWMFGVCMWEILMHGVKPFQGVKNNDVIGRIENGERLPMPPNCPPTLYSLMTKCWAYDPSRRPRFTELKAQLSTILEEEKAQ
T2 sequence (P12931 with tags, fused parts or gaps): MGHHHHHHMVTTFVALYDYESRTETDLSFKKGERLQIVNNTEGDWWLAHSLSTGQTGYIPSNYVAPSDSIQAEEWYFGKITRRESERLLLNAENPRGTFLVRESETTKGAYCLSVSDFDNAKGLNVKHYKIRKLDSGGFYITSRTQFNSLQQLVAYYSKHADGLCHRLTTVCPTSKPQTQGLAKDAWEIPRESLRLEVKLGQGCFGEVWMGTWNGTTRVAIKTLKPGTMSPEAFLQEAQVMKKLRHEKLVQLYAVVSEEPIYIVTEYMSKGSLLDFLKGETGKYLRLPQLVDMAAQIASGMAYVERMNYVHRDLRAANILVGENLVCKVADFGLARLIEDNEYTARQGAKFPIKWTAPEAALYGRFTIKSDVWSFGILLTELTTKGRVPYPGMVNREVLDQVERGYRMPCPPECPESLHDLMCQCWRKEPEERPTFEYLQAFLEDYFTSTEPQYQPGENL
T12 sequence (P07333 20-972): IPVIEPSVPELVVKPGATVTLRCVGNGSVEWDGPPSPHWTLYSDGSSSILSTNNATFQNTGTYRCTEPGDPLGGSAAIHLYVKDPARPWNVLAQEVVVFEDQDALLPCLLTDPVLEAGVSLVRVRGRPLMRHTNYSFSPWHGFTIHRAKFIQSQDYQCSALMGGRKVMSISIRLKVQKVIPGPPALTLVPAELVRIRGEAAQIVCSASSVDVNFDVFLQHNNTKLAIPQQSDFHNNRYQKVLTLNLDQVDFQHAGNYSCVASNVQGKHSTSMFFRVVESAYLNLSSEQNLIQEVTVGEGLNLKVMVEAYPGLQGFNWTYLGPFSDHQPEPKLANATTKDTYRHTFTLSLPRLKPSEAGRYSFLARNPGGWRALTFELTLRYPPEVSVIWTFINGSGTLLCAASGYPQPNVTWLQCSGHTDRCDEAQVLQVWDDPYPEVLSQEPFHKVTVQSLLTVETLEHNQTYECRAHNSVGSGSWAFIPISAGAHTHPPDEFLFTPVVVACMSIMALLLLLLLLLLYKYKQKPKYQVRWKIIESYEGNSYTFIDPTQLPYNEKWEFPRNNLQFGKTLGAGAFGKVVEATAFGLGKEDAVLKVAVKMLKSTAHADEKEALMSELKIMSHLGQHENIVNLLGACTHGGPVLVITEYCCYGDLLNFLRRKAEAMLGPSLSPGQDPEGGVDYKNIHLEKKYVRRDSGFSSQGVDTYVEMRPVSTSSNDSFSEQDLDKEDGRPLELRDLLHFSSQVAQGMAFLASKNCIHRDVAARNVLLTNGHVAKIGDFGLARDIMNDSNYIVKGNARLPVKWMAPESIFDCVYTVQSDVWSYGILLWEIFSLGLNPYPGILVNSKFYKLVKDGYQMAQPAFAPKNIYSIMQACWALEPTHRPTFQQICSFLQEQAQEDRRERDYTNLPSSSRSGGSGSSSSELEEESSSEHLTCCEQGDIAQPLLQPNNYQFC
T4 sequence (P15056 with tags, fused parts or gaps V600E): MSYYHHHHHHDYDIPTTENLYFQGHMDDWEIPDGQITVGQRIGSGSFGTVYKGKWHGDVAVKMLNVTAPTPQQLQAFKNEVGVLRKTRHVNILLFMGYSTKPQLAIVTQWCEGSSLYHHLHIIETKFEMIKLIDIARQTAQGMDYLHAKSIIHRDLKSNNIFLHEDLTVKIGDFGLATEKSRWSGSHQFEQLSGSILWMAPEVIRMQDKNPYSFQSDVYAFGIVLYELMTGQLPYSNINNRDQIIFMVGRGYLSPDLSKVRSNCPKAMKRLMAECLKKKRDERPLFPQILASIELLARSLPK
T10 sequence (P15056 whole entry): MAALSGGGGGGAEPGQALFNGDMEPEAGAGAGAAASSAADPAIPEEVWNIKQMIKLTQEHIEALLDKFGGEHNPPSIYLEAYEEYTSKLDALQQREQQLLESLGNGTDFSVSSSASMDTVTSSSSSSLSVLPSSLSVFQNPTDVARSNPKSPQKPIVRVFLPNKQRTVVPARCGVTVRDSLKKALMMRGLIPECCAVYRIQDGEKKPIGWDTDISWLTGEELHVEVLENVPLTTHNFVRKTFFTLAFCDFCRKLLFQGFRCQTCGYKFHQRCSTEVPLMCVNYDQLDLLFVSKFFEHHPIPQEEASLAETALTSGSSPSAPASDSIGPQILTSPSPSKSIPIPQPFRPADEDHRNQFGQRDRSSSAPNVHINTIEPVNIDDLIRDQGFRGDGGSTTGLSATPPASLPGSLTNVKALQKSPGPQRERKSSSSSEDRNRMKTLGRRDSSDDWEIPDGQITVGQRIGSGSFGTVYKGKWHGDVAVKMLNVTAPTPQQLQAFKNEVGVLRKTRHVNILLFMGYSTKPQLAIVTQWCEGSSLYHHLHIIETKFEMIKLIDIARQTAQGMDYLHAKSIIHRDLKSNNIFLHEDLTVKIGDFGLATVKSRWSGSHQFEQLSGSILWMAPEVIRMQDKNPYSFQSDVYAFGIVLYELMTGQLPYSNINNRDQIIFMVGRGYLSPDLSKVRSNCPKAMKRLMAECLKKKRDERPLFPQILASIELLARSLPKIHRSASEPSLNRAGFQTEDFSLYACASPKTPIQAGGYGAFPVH
T7 sequence (P10721 with tags, fused parts or gaps): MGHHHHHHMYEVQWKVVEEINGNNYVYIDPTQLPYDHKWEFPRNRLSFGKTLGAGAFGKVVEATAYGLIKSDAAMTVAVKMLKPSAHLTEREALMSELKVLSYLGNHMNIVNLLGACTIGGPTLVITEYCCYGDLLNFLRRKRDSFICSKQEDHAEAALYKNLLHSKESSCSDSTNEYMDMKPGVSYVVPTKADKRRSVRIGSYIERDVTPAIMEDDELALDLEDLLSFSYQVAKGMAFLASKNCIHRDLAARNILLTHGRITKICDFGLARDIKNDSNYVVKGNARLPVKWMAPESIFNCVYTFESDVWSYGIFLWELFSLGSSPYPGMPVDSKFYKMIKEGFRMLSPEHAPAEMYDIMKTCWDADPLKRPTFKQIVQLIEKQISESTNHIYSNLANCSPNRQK
T13 sequence (P53779 whole entry): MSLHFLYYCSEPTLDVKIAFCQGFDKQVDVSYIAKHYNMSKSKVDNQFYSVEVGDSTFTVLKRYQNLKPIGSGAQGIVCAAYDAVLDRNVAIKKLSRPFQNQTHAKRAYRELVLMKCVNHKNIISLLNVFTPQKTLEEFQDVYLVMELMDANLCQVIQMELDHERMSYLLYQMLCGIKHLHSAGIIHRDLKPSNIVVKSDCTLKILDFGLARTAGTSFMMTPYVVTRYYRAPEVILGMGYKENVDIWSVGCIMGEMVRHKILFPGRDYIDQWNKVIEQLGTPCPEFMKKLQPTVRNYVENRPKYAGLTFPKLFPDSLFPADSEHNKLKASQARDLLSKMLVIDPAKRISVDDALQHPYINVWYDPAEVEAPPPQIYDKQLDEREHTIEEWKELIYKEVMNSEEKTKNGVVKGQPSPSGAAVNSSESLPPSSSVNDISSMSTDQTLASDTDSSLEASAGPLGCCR
T6 sequence (P45983 whole entry): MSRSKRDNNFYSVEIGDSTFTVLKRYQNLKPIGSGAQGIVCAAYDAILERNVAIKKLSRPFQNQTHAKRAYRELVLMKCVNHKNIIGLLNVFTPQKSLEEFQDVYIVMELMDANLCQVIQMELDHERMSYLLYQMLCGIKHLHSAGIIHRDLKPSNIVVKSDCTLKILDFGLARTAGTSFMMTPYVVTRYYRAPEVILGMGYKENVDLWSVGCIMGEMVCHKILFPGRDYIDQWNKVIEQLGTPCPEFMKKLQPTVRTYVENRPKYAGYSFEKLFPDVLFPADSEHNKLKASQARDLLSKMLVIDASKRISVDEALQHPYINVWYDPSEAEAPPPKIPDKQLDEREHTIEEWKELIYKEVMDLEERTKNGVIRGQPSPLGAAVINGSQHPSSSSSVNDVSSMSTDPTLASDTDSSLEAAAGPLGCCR
T14 sequence (P45984 whole entry): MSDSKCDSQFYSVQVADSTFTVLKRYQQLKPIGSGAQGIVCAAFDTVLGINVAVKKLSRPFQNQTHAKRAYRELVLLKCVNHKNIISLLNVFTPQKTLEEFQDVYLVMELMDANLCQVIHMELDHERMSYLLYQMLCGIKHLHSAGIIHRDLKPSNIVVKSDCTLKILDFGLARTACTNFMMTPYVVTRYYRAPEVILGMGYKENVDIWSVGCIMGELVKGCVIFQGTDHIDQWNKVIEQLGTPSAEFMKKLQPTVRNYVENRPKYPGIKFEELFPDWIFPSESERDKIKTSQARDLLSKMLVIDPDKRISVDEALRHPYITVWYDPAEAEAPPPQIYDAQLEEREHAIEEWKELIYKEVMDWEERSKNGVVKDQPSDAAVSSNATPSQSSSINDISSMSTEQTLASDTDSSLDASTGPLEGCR

O=C(Nc1ccc(F)c(C(=O)c2c[nH]c3ncc(-c4cccnc4)cc23)c1F)OCc1ccccc1 [Compound P-0302, [2,4-Difluoro-3-(5-pyridin-3-yl-1H-pyrrolo[2,3-b]pyridine-3-carbonyl)-phenyl]-carbamic acid benzyl ester]
not listed: Jnk3 | Jnk2
≤ 10 µM: all other assays above

CCCS(=O)(=O)Nc1ccc(F)c(C(=O)c2c[nH]c3ncc(-c4cccc(C(=O)O)c4)cc23)c1F [Compound P-1266, 3-{3-[2,6-Difluoro-3-(propane-1-sulfonylamino)-benzoyl]-1H-pyrrolo[2,3-b]pyridin-5-yl}-benzoic acid]
not listed: Ret | c-Raf-1 | Jnk3 | Jnk2
≤ 10 µM: all other assays above

CCCS(=O)(=O)Nc1ccc(F)c(C(=O)c2c[nH]c3ncc(/C=C/C(=O)O)cc23)c1F [Compound P-1269, 3-3-[2,6-difluoro-3-(propane-1-sulfonylamino)-benzoyl]-1H-pyrrolo[2,3-b]pyridin-5-yl-acrylic acid]
not listed: Ret | Jnk1 | c-Raf-1 | Jnk3 | Jnk2
≤ 10 µM: all other assays above

COc1ccc(C(=O)c2c[nH]c3ncc(-c4cccc(C(N)=O)c4)cc23)c(F)c1 [Compound P-1346]
not listed: Flt1 | Ret | c-Raf-1 | Jnk2
≤ 10 µM: all other assays above

COc1ccc(F)c(C(=O)c2c[nH]c3ncc(-c4cccnc4)cc23)c1F [Compound P-1388, (2,6-Difluoro-3-methoxy-phenyl)-(5-pyridin-3-yl-1H-pyrrolo[2,3-b]pyridin-3-yl)-methanone]
not listed: Flt1 | Ret | Jnk1 | Jnk3 | Jnk2
≤ 10 µM: all other assays above

O=C(O)/C=C/c1ccc(-c2cnc3[nH]cc(C(=O)c4ccccc4F)c3c2)cc1 [Compound P-1473]
not listed: Flt1 | Ret | Kit | c-Raf-1 | Jnk2
≤ 10 µM: all other assays above

CCNC(=O)COc1ccc(F)c(Cc2c[nH]c3ncc(-c4cccnc4)cc23)c1F [Compound P-1475, 2-[2,4-Difluoro-3-(5-pyridin-3-yl-1H-pyrrolo[2,3-b]pyridin-3-ylmethyl)-phenoxy]-N-ethyl-acetamide]
not listed: Ret | c-Raf-1 | Jnk2
≤ 10 µM: all other assays above

Cc1cccc(C)c1Cc1c[nH]c2ncc(-c3cccnc3)cc12 [Compound P-1481, 3-(2,6-Dimethyl-benzyl)-5-pyridin-3-yl-1H-pyrrolo[2,3-b]pyridine]
≤ 10 µM: Src | B-Raf V600E | Btk | Kit | FGFR1 | B-Raf | Fak | Fms

O=C(c1c(F)cccc1F)c1c[nH]c2ncc(-c3cccnc3)cc12 [Compound P-1485]
≤ 10 µM: Src | Jnk3 | B-Raf V600E | Btk | FGFR1 | B-Raf | Fak | Fms

O=C(Nc1cccc(C(=O)c2c[nH]c3ncc(-c4cccnc4)cc23)c1)Nc1cccc(C(F)(F)F)c1F [Compound P-1728, 1-(2-Fluoro-3-trifluoromethyl-phenyl)-3-[3-(5-pyridin-3-yl-1H-pyrrolo[2,3-b]pyridine-3-carbonyl)-phenyl]-urea]
≤ 10 µM: Jnk2 | B-Raf V600E | B-Raf | Fms

CCCCOc1ccc(NC(=O)Nc2cccc(C(=O)c3c[nH]c4ncc(-c5cccnc5)cc34)c2)cc1 [Compound P-1729, 1-(4-Butoxy-phenyl)-3-[3-(5-pyridin-3-yl-1H-pyrrolo[2,3-b]pyridine-3-carbonyl)-phenyl]-urea]
≤ 10 µM: Jnk2 | B-Raf V600E | B-Raf | Fms
